The record followed here is patent US20260297016A1, “THERAPEUTIC COMPOUNDS” (REGENTS OF THE UNIVERSITY OF MINNESOTA, priority 2023, published 2026).

The target of the data set is T1, human PPARα (Homo sapiens, UniProt Q07869).
T1 construct: borders undisclosed
T1 sequence (Q07869 1-468): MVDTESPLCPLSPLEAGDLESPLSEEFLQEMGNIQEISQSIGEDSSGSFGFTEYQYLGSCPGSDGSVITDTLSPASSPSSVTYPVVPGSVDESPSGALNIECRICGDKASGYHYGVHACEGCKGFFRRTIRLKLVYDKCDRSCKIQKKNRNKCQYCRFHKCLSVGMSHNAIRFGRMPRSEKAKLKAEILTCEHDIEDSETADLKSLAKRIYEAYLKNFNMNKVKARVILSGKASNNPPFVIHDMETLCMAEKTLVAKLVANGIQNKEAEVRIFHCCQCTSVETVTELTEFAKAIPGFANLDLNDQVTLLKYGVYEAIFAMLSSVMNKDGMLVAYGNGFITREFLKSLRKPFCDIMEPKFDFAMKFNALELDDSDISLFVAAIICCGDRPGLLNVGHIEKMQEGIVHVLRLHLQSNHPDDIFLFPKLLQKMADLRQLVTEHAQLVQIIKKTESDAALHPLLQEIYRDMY
In words: Cell-based Luciferase Assay, human PPARα agonist activity (Indigo Biosciences hPPARα IB00111). Conditions: for activation at 0.5 µM: read-out: % PPAR-alpha AGONISM, % at 0.5 μm; for activation at 5 µM: read-out: % PPAR-alpha AGONISM, % at 5 μm; for activation at 50 µM: read-out: % PPAR-alpha AGONISM, % at 50 μm. The text has this:
Cell-based Luciferase Assay. […] Luminescence was quantified using a GloMax Explorer (Promega).

Molecules are shown by their SMILES.

With `O=C(O)c1cccc(NCc2ccc(-c3ccc(F)cc3)cc2)c1` [Example 1, 3-(((4′-Fluoro-[1,1′-biphenyl]-4-yl)methyl)amino)benzoic acid], the activation at 0.5 µM is 35.6%, the activation at 5 µM was determined as 125% and the activation at 50 µM is 55.1%.

`O=C(O)c1cccc(NCc2ccc(-c3ccc(C(F)(F)F)cc3)cc2)c1` [Example 2, 3-(((4′-(Trifluoromethyl)-[1,1′-biphenyl]-4-yl)methyl)amino)benzoic acid]: the activation at 0.5 µM is 74.7%, the activation at 5 µM was found to be 103% and the activation at 50 µM was 27.4%.

As to `COc1ccc(-c2ccc(CNc3cccc(C(=O)O)c3)cc2)cc1` [Example 3, 3-(((4′-Methoxy-[1,1′-biphenyl]-4-yl)methyl)amino)benzoic acid], the activation at 0.5 µM was found to be 32.9%, the activation at 5 µM came out at 112% and the activation at 50 µM worked out at 98.3%.

For the molecule `O=C(O)c1cccc(NCc2ccc(-c3ccc(C(F)(F)F)cc3)cc2)c1F` [Example 4, 2-Fluoro-3-(((4′-(trifluoromethyl)-[1,1′-biphenyl]-4-yl)methyl)amino)benzoic acid], the activation at 0.5 µM turned out to be 73.7%, the activation at 5 µM came out at 120% and the activation at 50 µM is 20.9%.

As for `O=C(O)c1cc(NCc2ccc(-c3ccc(C(F)(F)F)cc3)cc2)ccc1F` [Example 5, 2-Fluoro-5-(((4′-(trifluoromethyl)-[1,1′-biphenyl]-4-yl)methyl)amino)benzoic acid], the activation at 0.5 µM came out at 67.4%, the activation at 5 µM worked out at 92.5% and the activation at 50 µM is 54.4%.

Consider `O=C(O)c1ccc(F)c(NCc2ccc(-c3ccc(C(F)(F)F)cc3)cc2)c1` [Example 7, 4-Fluoro-3-(((4′-(trifluoromethyl)-[1,1′-biphenyl]-4-yl)methyl)amino)benzoic acid], for which the activation at 0.5 µM was determined as 6.6%, the activation at 5 µM stood at 98% and the activation at 50 µM came out at 68.1%.

Take `O=C(O)c1cc(F)cc(NCc2ccc(-c3ccccc3)cc2)c1` [Example 8, 3-(([1,1′-Biphenyl]-4-ylmethyl)amino)-5-fluorobenzoic Acid]: the activation at 0.5 µM was found to be 17.6%, the activation at 5 µM was 50.3% and the activation at 50 µM worked out at 95.2%.

Take `O=C(O)c1cc(F)cc(NCc2ccc(-c3ccc(C(F)(F)F)cc3)cc2O)c1` [Example 9, 3-Fluoro-5-(((3-hydroxy-4′-(trifluoromethyl)-[1,1′-biphenyl]-4-yl)methyl)amino)benzoic Acid]: the activation at 0.5 µM stood at 8%, the activation at 5 µM was determined as 49.6% and the activation at 50 µM was found to be 46.8%.

As to `O=C(O)c1cc(F)cc(NCc2cc(Cl)c(-c3ccc(C(F)(F)F)cc3)c(Cl)c2)c1` [Example 10, 3-(((2,6-Dichloro-4′-(trifluoromethyl)-[1,1′-biphenyl]-4-yl)methyl)amino)-5-fluorobenzoic acid], the activation at 0.5 µM was 0%, the activation at 5 µM worked out at 37.2% and the activation at 50 µM turned out to be 17.4%.

For the molecule `Cc1cc(CNc2cc(F)cc(C(=O)O)c2)ccc1-c1ccc(C(F)(F)F)cc1C` [Example 12, 3-(((2,2′-Dimethyl-4′-(trifluoromethyl)-[1,1′-biphenyl]-4-yl)methyl)amino)-5-fluorobenzoic Acid], the activation at 0.5 µM is 14.1%, the activation at 5 µM came out at 46.3% and the activation at 50 µM was determined as 26.5%.

For `Cc1cc(C(F)(F)F)ccc1-c1ccc(CNc2cc(F)cc(C(=O)O)c2)cc1` [Example 13, 3-Fluoro-5-(((2′-methyl-4′-(trifluoromethyl)-[1,1′-biphenyl]-4-yl)methyl)amino)benzoic Acid], the activation at 0.5 µM stood at 38.3%, the activation at 5 µM was found to be 47.4% and the activation at 50 µM amounted to 27.5%.

As for `N#Cc1ccc(-c2ccc(CNc3cc(F)cc(C(=O)O)c3)cc2)cc1` [Example 14, 3-(((4′-Cyano-[1,1′-biphenyl]-4-yl)methyl)amino)-5-fluorobenzoic Acid], the activation at 0.5 µM amounted to 7%, the activation at 5 µM came to 58.7% and the activation at 50 µM was found to be 83.8%.

Consider `COc1ccc(-c2ccc(CNc3cc(F)cc(C(=O)O)c3)cc2)cc1` [Example 16, 3-Fluoro-5-(((4′-methoxy-[1,1′-biphenyl]-4-yl)methyl)amino)benzoic acid], for which the activation at 0.5 µM turned out to be 38.2%, the activation at 5 µM is 106% and the activation at 50 µM amounted to 96%.

As for `O=C(O)c1cc(F)cc(NCc2ccc(-c3ccc(Cl)cc3)cc2)c1` [Example 18, 3-(((4′-Chloro-[1,1′-biphenyl]-4-yl)methyl)amino)-5-fluorobenzoic acid], the activation at 0.5 µM is 38.6%, the activation at 5 µM came to 80% and the activation at 50 µM stood at 87.8%.

Turning to `Cc1ccc(-c2ccc(CNc3cc(F)cc(C(=O)O)c3)cc2)cc1` [Example 19, 3-Fluoro-5-(((4′-methyl-[1,1′-biphenyl]-4-yl)methyl)amino)benzoic acid], the activation at 0.5 µM was 40.6%, the activation at 5 µM is 101% and the activation at 50 µM was found to be 98.9%.

As for `O=C(O)c1cc(F)cc(NCc2ccc(-c3ccc(C4CCCC4)cc3)cc2)c1` [Example 20, 3-(((4′-Cyclopentyl-[1,1′-biphenyl]-4-yl)methyl)amino)-5-fluorobenzoic acid], the activation at 0.5 µM was 38.2%, the activation at 5 µM came out at 58.5% and the activation at 50 µM was found to be 48%.

In the case of `O=C(O)c1cc(F)cc(NCc2ccc(-c3ccc(C(F)(F)F)cc3)cn2)c1` [Example 22, 3-Fluoro-5-(((5-(4-(trifluoromethyl)phenyl)pyridin-2-yl)methyl)amino)benzoic Acid], the activation at 0.5 µM came out at 22.1%, the activation at 5 µM is 62.2% and the activation at 50 µM worked out at 42.1%.

For the molecule `O=C(O)c1cc(F)cc(NCc2cnc(-c3ccc(C(F)(F)F)cc3)s2)c1` [Example 24, 3-fluoro-5-(((2-(4-(trifluoromethyl)phenyl)thiazol-5-yl)methyl)amino)benzoic Acid], the activation at 0.5 µM amounted to 15.7%, the activation at 5 µM was 83.3% and the activation at 50 µM is 74.9%.

On to `O=C(O)c1cc(F)cc(NCc2csc(-c3ccc(C(F)(F)F)cc3)n2)c1` [Example 25, 3-fluoro-5-(((2-(4-(trifluoromethyl)phenyl)thiazol-4-yl)methyl)amino)benzoic Acid], for which the activation at 0.5 µM came to 21.7%, the activation at 5 µM is 88.7% and the activation at 50 µM was 42.4%.

As for `O=C(O)c1cc(F)cc(NCc2csc(-c3ccc(F)cc3)n2)c1` [Example 26, 3-fluoro-5-(((2-(4-fluorophenyl)thiazol-4-yl)methyl)amino)benzoic Acid], the activation at 0.5 µM was determined as 10.6%, the activation at 5 µM came out at 14.2% and the activation at 50 µM worked out at 50%.

With `O=C(O)c1cccc(NCc2cn(-c3ccc(C(F)(F)F)cc3)nn2)c1` [Example 27, 3-(((1-(4-(trifluoromethyl)phenyl)-1H-1,2,3-triazol-4-yl)methyl)amino)benzoic Acid], the activation at 0.5 µM was 51.1%, the activation at 5 µM was determined as 94.3% and the activation at 50 µM was determined as 58.5%.

For the molecule `O=C(O)c1cccc(NCc2cn(-c3ccc(F)cc3)nn2)c1` [Example 28, 3-(((1-(4-fluorophenyl)-1H-1,2,3-triazol-4-yl)methyl)amino)benzoic Acid], the activation at 0.5 µM worked out at 13.1%, the activation at 5 µM turned out to be 21.5% and the activation at 50 µM came out at 58.6%.

On to `O=C(O)c1cc(F)cc(NCc2cn(-c3ccc(C(F)(F)F)cc3)nn2)c1` [Example 29, 3-fluoro-5-(((1-(4-(trifluoromethyl)phenyl)-1H-1,2,3-triazol-4-yl)methyl)amino)benzoic Acid], for which the activation at 0.5 µM was 27%, the activation at 5 µM stood at 139% and the activation at 50 µM turned out to be 91%.

On to `O=C(O)c1cc(F)cc(NCc2cn(-c3ccc(F)cc3)nn2)c1` [Example 30, 3-fluoro-5-(((1-(4-fluorophenyl)-1H-1,2,3-triazol-4-yl)methyl)amino)benzoic Acid], for which the activation at 0.5 µM is 9.6%, the activation at 5 µM turned out to be 19.1% and the activation at 50 µM is 48.8%.

As for `CC(C)(Sc1ccc(CCN(CCCCC2CCCCC2)C(=O)NC2CCCCC2)cc1)C(=O)O` [GW7647, reference compound], for the setting “90 nM”, the “PPAR-alpha agonism of the positive control” value is listed as “full agonism” and the “cytotoxicity of the positive control” value is “without signs of cytotoxicity”.
